Broadly, the pIC50 is the negative decadic logarithm of the IC50, by convention in mol/L. One may read the pKd as −log10 of the Kd, conventionally taken in molar units. As a reminder, the inhibition is the relative decrease from the control value, in per cent.

One assay concerns the target full-length human RORγt (Homo sapiens (Human), UniProt P51449). Put plainly: RORγt (full-length human) reporter assay, Conditions B or C. The class given is cell-based. Particulars: for RORγt (FL) Reporter Assay B or C, % inhibition (value marked *): marked *: footnote not given; for inhibition at 3 µM: at 3 μM compound concentration; for inhibition at 3 µM / inhibition at 1 µM: read-out: RORγt (FL) Reporter Assay B or C, % inhibition; for inhibition at 1 µM: at 1 μM compound concentration; for inhibition at 6 µM: read-out: RORγt (FL) Reporter Assay B or C, % inhibition @ 6 μM, Conditions B or C. The essentials:
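Readout is dual luciferase: firefly (GAL4-driven) normalized to DMSO-only and saturating-reference controls, then to CMV-Renilla. Full-length human RORγt fused to GAL4-DBD was transiently expressed in HEK293T; compound exposure ran overnight (16-20 h) starting 4-6 h after transfection, final FBS 1.3%, DMSO 0.1%.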
(A reporter such as luciferase makes a cellular process visible.)

Assay [1] addresses human RORγt ligand binding domain (RORγt LBD) (Homo sapiens (Human), UniProt P51449). As to the kind of experiment: RORγt ThermoFluor® assay (thermal shift binding). Particulars: read-out: ThermoFluor® Assay, Kd. Put shortly: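 Binding was inferred from thermal stabilisation (ΔTm) of the E. coli-expressed RORγt LBD (0.065 mg/mL), monitored by 1,8-ANS (60 μM) emission at 500 nm during a 1 °C/min ramp. Buffer was Hepes 100 mM pH 7.0 with NaCl, GSH and Tween-20.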
For orientation: DSF heats the sample and reads unfolding from a dye or from intrinsic fluorescence.

The mark [2] stands for this setting: Conditions B or C, read-out: RORγt (FL) Reporter Assay B or C, IC50.
Where [3] appears, read: read-out: RORγt (FL) Reporter Assay B or C, IC50.

pIC50, pKd: −log10 of the molar value. Like-named read-outs stand apart in the source and are kept apart here.

human RORγt ligand binding domain (RORγt LBD), sequence (P51449 other isoform, or with tags, fused parts or gaps): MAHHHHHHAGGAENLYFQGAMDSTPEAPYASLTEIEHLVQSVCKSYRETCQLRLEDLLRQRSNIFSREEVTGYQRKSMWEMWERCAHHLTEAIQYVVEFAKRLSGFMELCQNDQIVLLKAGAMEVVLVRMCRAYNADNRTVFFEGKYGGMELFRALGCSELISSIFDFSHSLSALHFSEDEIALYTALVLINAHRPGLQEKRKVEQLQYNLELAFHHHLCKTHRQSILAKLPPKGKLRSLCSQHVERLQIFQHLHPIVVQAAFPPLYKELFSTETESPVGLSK
full-length human RORγt, sequence (P51449 other isoform, or with tags, fused parts or gaps): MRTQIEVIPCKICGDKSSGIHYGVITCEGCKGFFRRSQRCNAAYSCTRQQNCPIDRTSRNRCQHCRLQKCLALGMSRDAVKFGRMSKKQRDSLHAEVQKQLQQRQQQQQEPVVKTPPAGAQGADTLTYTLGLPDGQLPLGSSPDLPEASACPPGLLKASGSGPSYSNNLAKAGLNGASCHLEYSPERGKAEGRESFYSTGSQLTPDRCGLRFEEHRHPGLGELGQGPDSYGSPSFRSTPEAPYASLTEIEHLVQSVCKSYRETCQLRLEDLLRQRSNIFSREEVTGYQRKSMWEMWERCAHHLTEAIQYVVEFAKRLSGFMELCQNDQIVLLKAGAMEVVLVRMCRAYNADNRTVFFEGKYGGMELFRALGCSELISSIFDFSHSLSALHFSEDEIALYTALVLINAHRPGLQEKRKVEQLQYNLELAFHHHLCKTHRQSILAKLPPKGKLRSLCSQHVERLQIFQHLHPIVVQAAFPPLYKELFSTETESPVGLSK

On to `CC[C@H](Nc1cc(C(F)F)c(-c2sc(C(=O)N[C@H](C)C(C)(C)O)nc2C(=O)N2CCCC[C@@H]2C)cn1)C(F)(F)F` [Example 241, 5-[4-(Difluoromethyl)-6-[[(1S)-1-(trifluoromethyl)propyl]amino]-3-pyridyl]-N-[(1R)-2-hydroxy-1,2-dimethyl-propyl]-4-[(2S)-2-methylpiperidine-1-carbonyl]thiazole-2-carboxamide], for which, on full-length human RORγt (Conditions B or C), the “RORγt (FL) Reporter Assay B or C, % inhibition (value marked *)” value (shortened to “RORγt … % inhibition (value marked *)”) is 103* %. For the same compound, the pIC50 on full-length human RORγt (setting [2]) was 7.62. In addition, the pKd in assay [1] is 9.23.

As to `C[C@H](Nc1cc(C(F)(F)F)c(-c2sc(C(=O)NCC(C)(C)O)nc2C(=O)N2C3CCC2CC3)cn1)C1CCC1` (stereo in doubt) [Example 171, 4-((1s,4s)-7-Azabicyclo[2.2[1]heptane-7-carbonyl)-5-(6-(((S*)-1-cyclobutylethyl)amino)-4-(trifluoromethyl)pyridine-3-yl)-N-(2-hydroxy-2-methylpropyl)thiazole-2-carboxamide], the “RORγt … % inhibition (value marked *)” value on full-length human RORγt (Conditions B or C) was 108* %. The pIC50 on full-length human RORγt (setting [2]) was 7.80. Besides, the pKd in assay [1] was 8.40.

In the case of `C[C@H]1CCCN1C(=O)c1nc(C(=O)NCC(C)(C)O)sc1-c1cnc(N[C@@H](C2CC2)C(F)(F)F)cc1C(F)F` [Example 295], on full-length human RORγt, the inhibition at 3 µM came to 108%. Moreover, at full-length human RORγt (setting [3]), the pIC50 is 7.85. Moreover, in assay [1], the pKd was 8.54.

`C[C@H]1CCCN1C(=O)c1nc(C(=O)N[C@H](C)C(C)(C)O)sc1-c1cnc(N[C@H](C)C(F)(F)F)cc1C(F)F` [Example 306, 5-(4-(Difluoromethyl)-6-(((R)-1,1,1-trifluoropropan-2-yl)amino)pyridin-3-yl)-N—((R)-3-hydroxy-3-methylbutan-2-yl)-4-((S)-2-methylpyrrolidine-1-carbonyl)thiazole-2-carboxamide]: the inhibition at 3 µM at full-length human RORγt came out at 104%. Moreover, the pIC50 on full-length human RORγt (setting [3]) is 6.89. In assay [1], the pKd is 8.00.

Regarding `O=C(N[C@H]1COC[C@@H]1O)c1nc(C(=O)N2C3CCC2CC3)c(-c2cnc(N[C@@H](C3CC3)C(F)(F)F)cc2C(F)F)s1` [Example 417, 4-((1s,4s)-7-Azabicyclo[2.2.1]heptane-7-carbonyl)-5-[6-[[(1S)-1-cyclopropyl-2,2,2-trifluoro-ethyl]amino]-4-(difluoromethyl)-3-pyridyl]-N-[(3S,4R)-4-hydroxytetrahydrofuran-3-yl]thiazole-2-carboxamide], on full-length human RORγt (RORγt (FL) Reporter Assay B or C, IC50), the pIC50 was 7.55. Further, the inhibition at 1 µM at full-length human RORγt is 94%. In assay [1], the pKd is 8.62.

Take `CC[C@H](Nc1cc(C(F)F)c(-c2sc(C(=O)N[C@H](C)C(C)(C)O)nc2C(=O)N2C3CCC2CC3)cn1)C(F)(F)F` [Example 242, 4-((1s,4s)-7-Azabicyclo[2.2.1]heptane-7-carbonyl)-5-[4-(difluoromethyl)-6-[[(1S)-1-(trifluoromethyl)propyl]amino]-3-pyridyl]-N-[(1R)-2-hydroxy-1,2-dimethyl-propyl]thiazole-2-carboxamide]: the “RORγt … % inhibition (value marked *)” value at full-length human RORγt (Conditions B or C) is listed as 86* %. Moreover, at full-length human RORγt (setting [2]), the pIC50 is 7.82. In addition, the pKd in assay [1] was 8.55.

For `C[C@H]1CCCN1C(=O)c1nc(C(=O)N2CC(CO)C2)sc1-c1cnc(NC(C)(C)C)cc1C(F)(F)F` [Example 249, [5-[6-(tert-Butylamino)-4-(trifluoromethyl)-3-pyridyl]-2-[3-(hydroxymethyl)azetidine-1-carbonyl]thiazol-4-yl]-[(2S)-2-methylpyrrolidin-1-yl]methanone], the inhibition at 3 µM on full-length human RORγt is 103%. The pIC50 on full-length human RORγt (setting [3]) was 7.62. Besides, in assay [1], the pKd was 8.09.

On to `C[C@H]1CCCCN1C(=O)c1nc(C(=O)NCC(C)(C)O)sc1-c1cnc(NC2CCCCC2)cc1C(F)F` [Example 34, (S)-5-(6-(Cyclohexylamino)-4-(difluoromethyl)pyridin-3-yl)-N-(2-hydroxy-2-methylpropyl)-4-(2-methylpiperidine-1-carbonyl)thiazole-2-carboxamide], for which, at full-length human RORγt (setting [2]), the pIC50 is 8.16. On full-length human RORγt, the inhibition at 6 µM turned out to be 105%. The pKd in assay [1] is 9.54.

Consider `CC[C@H](Nc1cc(C(F)F)c(-c2sc(C(=O)N[C@@H](C)C(C)(C)O)nc2C(=O)N2C3CCC2CC3)cn1)C(F)(F)F` [Example 248], for which, at full-length human RORγt (Conditions B or C), the “RORγt … % inhibition (value marked *)” value is reported as 102* %. At full-length human RORγt (setting [2]), the pIC50 is 7.80. Also, the pKd in assay [1] was 8.47.

With `C[C@@H](Nc1cc(C(F)(F)F)c(-c2sc(C(=O)NCC(C)(C)O)nc2C(=O)N2CCC(F)CC2)cn1)C1CC1` [Example 29, (R)-5-(6-((1-Cyclopropylethyl)amino)-4-(trifluoromethyl)pyridin-3-yl)-4-(4-fluoropiperidine-1-carbonyl)-N-(2-hydroxy-2-methylpropyl)thiazole-2-carboxamide], on full-length human RORγt (setting [2]), the pIC50 is 7.66. The inhibition at 6 µM at full-length human RORγt worked out at 105%. Also, the pKd in assay [1] is 7.66.

As for `C[C@H](Nc1cc(C(F)F)c(-c2sc(C(=O)NC3CCC3O)nc2C(=O)N2C3CCC2CC3)cn1)C(F)(F)F` (stereo partly drawn) [Example 290, 4-((1s,4s)-7-Azabicyclo[2.2.1]heptane-7-carbonyl)-5-(4-(difluoromethyl)-6-(((S)-1,1,1-trifluoropropan-2-yl)amino)pyridin-3-yl)-N-(-trans-2-hydroxycyclobutyl)thiazole-2-carboxamide], on full-length human RORγt, the inhibition at 3 µM turned out to be 103%. Also, the pIC50 on full-length human RORγt (setting [3]) is 8.19. For the same compound, in assay [1], the pKd is 8.20.

With `C[C@H](Nc1cc(C(F)F)c(-c2sc(C(=O)N[C@H]3C[C@@H]3O)nc2C(=O)N2CCC[C@@H]2C)cn1)C(F)(F)F` (single isomer, unassigned) [Example 158, 5-(4-(Difluoromethyl)-6-(((S)-1,1,1-trifluoropropan-2-yl)amino)pyridin-3-yl)-N-((1S*,2S*)-2-hydroxycyclopropyl)-4-((S)-2-methylpyrrolidine-1-carbonyl)thiazole-2-carboxamide], on full-length human RORγt (Conditions B or C), the “RORγt … % inhibition (value marked *)” value is given as 96* %. Also, on full-length human RORγt (setting [2]), the pIC50 was 6.51. The pKd in assay [1] was 7.77.

As for `C[C@H]1CCCCN1C(=O)c1nc(C(=O)NC2CCS(=O)(=O)CC2)sc1-c1cnc(NC2CCCC2)cc1C(F)(F)F` [Example 28, (S)-5-(6-(Cyclopentylamino)-4-(trifluoromethyl)pyridin-3-yl)-N-(1,1-dioxidotetrahydro-2H-thiopyran-4-yl)-4-(2-methylpiperidine-1-carbonyl)thiazole-2-carboxamide], the pIC50 on full-length human RORγt (setting [2]) is 7.85. The inhibition at 6 µM on full-length human RORγt was determined as 123%. For the same compound, the pKd in assay [1] was 9.77.

`C[C@H](Nc1cc(C(F)F)c(-c2sc(C(=O)N[C@@H]3CC[C@@H](O)C3)nc2C(=O)N2CC(F)(F)C[C@@H]2C)cn1)C(F)(F)F` [Example 410, 4-[(2S)-4,4-Difluoro-2-methyl-pyrrolidine-1-carbonyl]-5-[4-(difluoromethyl)-6-[[(1S)-2,2,2-trifluoro-1-methyl-ethyl]amino]-3-pyridyl]-N-[(1R,3R)-3-hydroxycyclopentyl]thiazole-2-carboxamide]: the inhibition at 3 µM at full-length human RORγt came to 97%. For the same compound, the pIC50 on full-length human RORγt (setting [3]) is 7.74. In assay [1], the pKd is 8.96.

Turning to `CC(Nc1cc(C(F)(F)F)c(-c2sc(C(=O)NCC(C)(C)O)nc2C(=O)N2CC(F)(F)C[C@@H]2C)cn1)C1CCC1` (stereo partly drawn) [Example 161, 5-(6-((1-Cyclobutylethyl)amino)-4-(trifluoromethyl)pyridine-3-yl)-4-((S)-4,4-difluoro-2-methylpyrrolidine-1-carbonyl)-N-(2-hydroxy-2-methylpropyl)thiazole-2-carboxamide], the “RORγt … % inhibition (value marked *)” value on full-length human RORγt (Conditions B or C) is on record as 106* %. Moreover, the pIC50 at full-length human RORγt (setting [2]) is 7.70. In addition, the pKd in assay [1] was 9.11.

For the compound `C[C@H](Nc1cc(C(F)F)c(-c2sc(C(=O)NC3CCS(=O)(=O)CC3)nc2C(=O)N2CC(F)(F)C[C@@H]2C)cn1)C(F)(F)F` [Example 421, 4-[(2S)-4,4-Difluoro-2-methyl-pyrrolidine-1-carbonyl]-5-[4-(difluoromethyl)-6-[[(1S)-2,2,2-trifluoro-1-methyl-ethyl]amino]-3-pyridyl]-N-(1,1-dioxothian-4-yl)thiazole-2-carboxamide], the inhibition at 1 µM at full-length human RORγt came out at 98%. Besides, the pIC50 at full-length human RORγt (setting [3]) was 7.19. Besides, in assay [1], the pKd was 9.00.

Take `CC[C@H](Nc1cc(C(F)F)c(-c2sc(C(=O)N[C@@H]3C[C@@H]3O)nc2C(=O)N2CCC[C@@H]2C)cn1)C(F)(F)F` (relative stereo) [Example 211, 5-(4-(Difluoromethyl)-6-(((S)-1,1,1-trifluorobutan-2-yl)amino)pyridin-3-yl)-N-((1R*,2S*)-2-hydroxycyclopropyl)-4-((S)-2-methylpyrrolidine-1-carbonyl)thiazole-2-carboxamide]: the “RORγt … % inhibition (value marked *)” value on full-length human RORγt (Conditions B or C) is 104* %. On full-length human RORγt (setting [2]), the pIC50 is 7.85. The pKd in assay [1] was 8.09.

As for `C[C@H](Nc1cc(C(F)F)c(-c2sc(C(=O)N[C@H](C)C(C)(C)O)nc2C(=O)N2C3CCC2CC3)cn1)C(F)(F)F` [Example 445, 4-((1s,4s)-7-Azabicyclo[2.2.1]heptane-7-carbonyl)-5-[4-(difluoromethyl)-6-[[(1S)-2,2,2-trifluoro-1-methyl-ethyl]amino]-3-pyridyl]-N-[(1R)-2-hydroxy-1,2-dimethyl-propyl]thiazole-2-carboxamide], at full-length human RORγt, the inhibition at 3 µM was 73%. In addition, the negative logarithm of the IC50 (pIC50) at full-length human RORγt (setting [3]) was 7.02. The pKd in assay [1] was 7.92.

(Values after patent US10975068B2, “6-aminopyridin-3-yl thiazoles as modulators of RORγT” (Janssen Pharmaceutica NV, priority 2016, dated 2021).)
